This is an account of results in patent publication US20250346593A1, “IMIDAZO(1,2-1)PYRIDINE DERIVATIVES AS RIPK2 INHIBITORS” (Interline Therapeutics, Inc., priority 2022, published 2025).

Like-named read-outs stand apart in the source and are kept apart here.

Test [1] relates to NF-κB pathway (SEAP) in THP1-Dual cells. As to the kind of experiment: THP-1 Dual cell SEAP assay (L18-MDP stimulated). The settings on record: Homo sapiens, THP1-Dual, read-out: NFkB THP1 IC50. The class given is cell-based.
The target of test [2] is GST-RIPK2 fusion protein (human RIPK2 amino acids 1-310) (Homo sapiens (Human), UniProt O43353). As to the kind of experiment: RIPK2 binding competition assay (TR-FRET, Tracer 199).
Chain of GST-RIPK2 fusion protein (human RIPK2 amino acids 1-310) (O43353 1-310): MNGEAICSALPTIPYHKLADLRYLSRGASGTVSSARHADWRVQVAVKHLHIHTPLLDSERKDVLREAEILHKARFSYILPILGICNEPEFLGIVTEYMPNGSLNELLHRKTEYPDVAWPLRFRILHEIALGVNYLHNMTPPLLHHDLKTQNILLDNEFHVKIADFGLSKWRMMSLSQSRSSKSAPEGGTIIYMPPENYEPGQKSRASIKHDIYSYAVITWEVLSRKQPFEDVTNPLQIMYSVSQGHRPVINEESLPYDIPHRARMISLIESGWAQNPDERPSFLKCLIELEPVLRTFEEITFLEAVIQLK
Where [3] appears, read: read-out: RIPK2 IC50, RIPK2 binding competition assay.

Consider `COc1cc2ncc(-c3cccc(N)c3F)n2cc1S(=O)(=O)C(C)(C)C` [Example 29, 3-(6-(tert-butylsulfonyl)-7-methoxyimidazo[1,2-a]pyridin-3-yl)-2-fluoroaniline], for which the IC50 in test [1] is over 1000 nM; in test [2], 2.5 to 20 nM.
Consider `COc1cc2ncc(-c3ccc(N)cc3)n2cc1S(=O)(=O)C(C)(C)C` [Example 18, 4-(6-(tert-butylsulfonyl)-7-methoxyimidazo[1,2-a]pyridin-3-yl)aniline], for which the IC50 is over 1000 nM in test [1] and over 20 nM in test [2] (setting [3]).
As to `COc1cc2ncc(-c3cc(NCCCO)ncc3F)n2cc1S(=O)(=O)C(C)(C)C` [Example 310, 3-((4-(6-(tert-butylsulfonyl)-7-methoxyimidazo[1,2-a]pyridin-3-yl)-5-fluoropyridin-2-yl)amino)propan-1-ol], the IC50 was over 1000 nM in test [1] and over 20 nM in test [2] (setting [3]).
For the compound `CC(C)(C)S(=O)(=O)c1ccn2ncc(-c3ccc(F)nc3N)c2c1` [Example 299, 3-(5-(tert-butylsulfonyl)pyrazolo[1,5-a]pyridin-3-yl)-6-fluoropyridin-2-amine], the IC50 in test [1] was over 1000 nM; in test [2], over 20 nM.
On to `COc1cc2ncc(-c3cc(F)nc(NC(C)C)c3)n2cc1S(=O)(=O)C(C)(C)C` [Example 178, 4-(6-(tert-butylsulfonyl)-7-methoxyimidazo[1,2-a]pyridin-3-yl)-6-fluoro-N-isopropylpyridin-2-amine], for which the IC50 in test [1] was under 50 nM; in test [2] (setting [3]), under 1 nM.
For `COc1cc2ncc(-c3cc(F)nc(NC[C@@H]4CCNC(=O)C4)c3)n2cc1S(=O)(=O)C(C)(C)C` (single isomer, unassigned) [Example 238, (4R or S)-4-[({6-fluoro-4-[7-methoxy-6-(2-methylpropane-2-sulfonyl)imidazo[1,2-a]pyridin-3-yl]pyridin-2-yl}amino)methyl]pi peridin-2-one], the figures for the IC50 in test [1] and in test [2] were 50 to 250 nM and 1 to 2.5 nM, respectively.
On to `COc1cc2ncc(-c3ccc(OC)c(N)n3)n2cc1S(=O)(=O)C(C)(C)C` [Example 336, 6-(6-(tert-butylsulfonyl)-7-methoxyimidazo[1,2-a]pyridin-3-yl)-3-methoxypyridin-2-amine], for which the IC50 in test [1] was over 1000 nM; in test [2] (setting [3]), over 20 nM.
`COc1cc2ncc(-c3ccc(NS(C)(=O)=O)nc3)n2cc1S(=O)(=O)C(C)(C)C` [Example 148, N-(5-(6-(tert-butylsulfonyl)-7-methoxyimidazo[1,2-a]pyridin-3-yl)pyridin-2-yl)methanesulfonamide]: the IC50 was over 1000 nM in test [1] and over 20 nM in test [2] (setting [3]).
Take `COc1cc2ncc(-c3cc(F)nc(N[C@@H]4CC[C@@H](O)C4)c3)n2cc1S(=O)(=O)C(C)(C)C` (racemic) [Example 197, rac-(1R,3R)-3-((4-(6-(tert-butylsulfonyl)-7-methoxyimidazo[1,2-a]pyridin-3-yl)-6-fluoropyridin-2-yl)amino)cyclopentan-1-ol]: the figures for the IC50 in test [1] and in test [2] were under 50 nM and 1 to 2.5 nM, respectively.
As for `COc1cc2ncc(-c3ccc(N)nc3Cl)n2cc1S(=O)(=O)C(C)(C)C` [Example 99, 5-(6-(tert-butylsulfonyl)-7-methoxyimidazo[1,2-a]pyridin-3-yl)-6-chloropyridin-2-amine], the IC50 in test [1] was over 1000 nM; in test [2] (setting [3]), over 20 nM.
Regarding `COc1cc2ncc(-c3cccc(NS(=O)(=O)CC(C)C)c3)n2cc1S(=O)(=O)C(C)(C)C` [Example 280, N-(3-(6-(tert-butylsulfonyl)-7-methoxyimidazo[1,2-a]pyridin-3-yl)phenyl)-2-methylpropane-1-sulfonamide], the IC50 was 250 to 1000 nM in test [1] and 1 to 2.5 nM in test [2].
In the case of `COc1cc2ncc(-c3cc(N)c(OC(F)F)c(F)c3)n2cc1S(=O)(=O)C(C)(C)C` [Example 65, 5-(6-(tert-butylsulfonyl)-7-methoxyimidazo[1,2-a]pyridin-3-yl)-2-(difluoromethoxy)-3-fluoroaniline], the IC50 in test [1] was in the range of 50 to 250 nM; in test [2], 1 to 2.5 nM.
Consider `COc1cc2ncc(-c3cc(F)nc(N(C)CCCO)c3)n2cc1S(=O)(=O)C(C)(C)C` [Example 209, 3-((4-(6-(tert-butylsulfonyl)-7-methoxyimidazo[1,2-a]pyridin-3-yl)-6-fluoropyridin-2-yl)(methyl)amino) propan-1-ol], for which the results for the IC50 in test [1] and in test [2] were 50 to 250 nM and 1 to 2.5 nM, respectively.
Take `CCCS(=O)(=O)Nc1cc(-c2cnc3cc(OC)c(S(=O)(=O)C(C)(C)C)cn23)cc(F)n1` [Example 304, N-(4-(6-(tert-butylsulfonyl)-7-methoxyimidazo[1,2-a]pyridin-3-yl)-6-fluoropyridin-2-yl)propane-1-sulfonamide]: the IC50 in test [1] is over 1000 nM; in test [2] (setting [3]), over 20 nM.
On the same counts, the results for `COc1cc2ncc(-c3cc(F)nc(NCC(C)(C)O)c3)n2cc1C(=O)N(C)C` [Example 249, 3-{2-fluoro-6-[(2-hydroxy-2-methylpropyl)amino]pyridin-4-yl}-7-methoxy-N,N-dimethylimidazo[1,2-a]pyridine-6-carboxamide] are 250 to 1000 nM and over 20 nM.
Take `COc1cc2ncc(-c3cc(F)nc(NCCO)c3)n2cc1S(=O)(=O)C(C)(C)C` [Example 202, 2-((4-(6-(tert-butylsulfonyl)-7-methoxyimidazo[1,2-a]pyridin-3-yl)-6-fluoropyridin-2-yl)amino)ethan-1-ol]: the IC50 in test [1] is under 50 nM; in test [2], 1 to 2.5 nM.
`COc1cc2ncc(-c3cc(F)c(OC)c(N4CC[C@@H](O)C4=O)c3)n2cc1S(=O)(=O)C(C)(C)C` [Example 307, (R)-1-(5-(6-(tert-butylsulfonyl)-7-methoxyimidazo[1,2-a]pyridin-3-yl)-3-fluoro-2-methoxyphenyl)-3-hydroxypyrrolidin-2-one]: the results for the IC50 in test [1] and in test [2] (setting [3]) were over 1000 nM and over 20 nM, respectively.
Take `COc1cc2ncc(-c3ccc(N4CCOCC4)nc3F)n2cc1S(=O)(=O)C(C)(C)C` [Example 101, 4-(5-(6-(tert-butylsulfonyl)-7-methoxyimidazo[1,2-a]pyridin-3-yl)-6-fluoropyridin-2-yl)morpholine]: the IC50 in test [1] is over 1000 nM; in test [2] (setting [3]), over 20 nM.
On to `COc1cc2ncc(-c3cc(F)c(C#N)c(NCCCO)c3)n2cc1S(=O)(=O)C(C)(C)C` [Example 214, 4-(6-(tert-butylsulfonyl)-7-methoxyimidazo[1,2-a]pyridin-3-yl)-2-fluoro-6-((3-hydroxypropyl)amino) benzonitrile], for which the IC50 in test [1] was in the range of 50 to 250 nM; in test [2], 2.5 to 20 nM.
Taken in the same sequence, the figures for `CNC(=O)c1cn2c(-c3cc(F)nc(NCCCO)c3)cnc2cc1OC` [Example 251, 3-{2-fluoro-6-[(3-hydroxypropyl)amino]pyridin-4-yl}-7-methoxy-N-methylimidazo[1,2-a]pyridine-6-carboxamide] were under 50 nM and 1 to 2.5 nM.
As for `COc1cc2ncc(-c3cc(F)nc(NCCC(C)(C)OC)c3)n2cc1S(=O)(=O)C(C)(C)C` [Example 176, 4-(6-(tert-butylsulfonyl)-7-methoxyimidazo[1,2-a]pyridin-3-yl)-6-fluoro-N-(3-methoxy-3-methylbutyl)pyridin-2-amine], the IC50 was under 50 nM in test [1] and under 1 nM in test [2] (setting [3]).
Take `COc1cc2ncc(-c3cc(NCCCO)cc(F)n3)n2cc1S(=O)(=O)C(C)(C)C` [Example 252, 3-((2-(6-(tert-butylsulfonyl)-7-methoxyimidazo[1,2-a]pyridin-3-yl)-6-fluoropyridin-4-yl)amino)propan-1-ol]: the IC50 was 250 to 1000 nM in test [1] and over 20 nM in test [2] (setting [3]).
Take `CCCS(=O)(=O)Nc1cc(-c2cnc3cc(OC)c(S(=O)(=O)C(C)(C)C)cn23)cc(F)c1OCC` [Example 270, N-(5-(6-(tert-butylsulfonyl)-7-methoxyimidazo[1,2-a]pyridin-3-yl)-2-ethoxy-3-fluorophenyl)propane-1-sulfonamide]: the IC50 in test [1] was in the range of 250 to 1000 nM; in test [2], 1 to 2.5 nM.
In the case of `COc1cc2ncc(-c3cc(F)nc(NC[C@H](C)O)c3)n2cc1S(=O)(=O)C(C)(C)C` [Example 227, (2S)-1-({6-fluoro-4-[7-methoxy-6-(2-methylpropane-2-sulfonyl)imidazo[1,2-a]pyridin-3-yl]pyridin-2-yl}amino)propan-2-ol], the half-inhibitory concentration (IC50) was under 50 nM in test [1] and 1 to 2.5 nM in test [2].
With `COc1cc2ncc(-c3cc(F)c(OC)c(C4CC4)c3)n2cc1S(=O)(=O)C(C)(C)C` [Example 340], the IC50 fell in the range of 50 to 250 nM in test [1] and 1 to 2.5 nM in test [2].
On to `COc1cc2ncc(-c3cc(N)ccc3F)n2cc1S(=O)(=O)C(C)(C)C` [Example 32, 3-(6-(tert-butylsulfonyl)-7-methoxyimidazo[1,2-a]pyridin-3-yl)-4-fluoroaniline], for which the IC50 in test [1] was over 1000 nM; in test [2] (setting [3]), over 20 nM.
For `COc1cc2ncc(-c3cccc(NS(=O)(=O)C(C)C)c3)n2cc1S(=O)(=O)C(C)(C)C` [Example 278, N-(3-(6-(tert-butylsulfonyl)-7-methoxyimidazo[1,2-a]pyridin-3-yl)phenyl)propane-2-sulfonamide], the values for the IC50 in test [1] and in test [2] were 250 to 1000 nM and 2.5 to 20 nM, respectively.
Consider `CCOc1cn2ncc(-c3cc(Cl)c(N)nc3F)c2cc1S(=O)(=O)C(C)(C)C` [Example 114, 5-(5-(tert-butylsulfonyl)-6-ethoxypyrazolo[1,5-a]pyridin-3-yl)-3-chloro-6-fluoropyridin-2-amine], for which the IC50 fell in the range of 50 to 250 nM in test [1] and 1 to 2.5 nM in test [2].
Take `COc1cc2ncc(-c3ccc(N(C)C)nc3F)n2cc1S(=O)(=O)C(C)(C)C` [Example 77, 5-(6-(tert-butylsulfonyl)-7-methoxyimidazo[1,2-a]pyridin-3-yl)-6-fluoro-N,N-dimethylpyridin-2-amine]: the figures for the IC50 in test [1] and in test [2] (setting [3]) were over 1000 nM and over 20 nM, respectively.
On the same counts, the results for `COc1cc2ncc(-c3cnc(N)cn3)n2cc1S(=O)(=O)C(C)(C)C` [Example 103, 5-(6-(tert-butylsulfonyl)-7-methoxyimidazo[1,2-a]pyridin-3-yl)pyrazin-2-amine] are over 1000 nM and over 20 nM.
